In publication PMC5589090 (PLoS Medicine, 2017):
Read-outs that look alike come from different tables or passages of the source.

Columns and labels:
DNMT1 = target: T1, DNMT1 (Homo sapiens, UniProt P26358); test: DNMT1 protein measurement by flow cytometry of peripheral blood mononuclear cells; assay type: in vivo
T1 construct: DNMT1 protein levels were measured by flow cytometric analysis of peripheral blood mononuclear cells; endogenous in cells; host or cells: peripheral blood mononuclear cells of sickle cell disease patients (ex vivo, after in vivo dosing)
Description: Phlebotomized whole blood was layered over Histopaque. The interface was collected and washed with phosphate-buffered saline (PBS). Cell suspensions of approximately 200,000 cells were fixed with 4% paraformaldehyde for 30 minutes on ice. Cells were spun down, washed in PBS, and suspended in 70% ethanol and stored at −20°C for subsequent batched analyses. […] All procedures were performed on ice and all centrifugations were done at 400 g for 5 minutes at 4°C. The pellet was hydrated overnight in 1 ml sterile, distilled water to partially reverse the alcohol fixation. After incubation, samples were centrifuged and then resuspended in 1 ml PBS/2% bovine serum albumin (BSA) and incubated for 30 minutes to block nonspecific antibody binding. Following centrifugation, unlabeled anti-DNMT1 antibody [EPR 3522] […] Samples were washed 3 times: each wash was a 10-minute incubation with 1 ml PBS/2% BSA followed by centrifugation. After the third wash, CD64-Alexa Fluor 488 (5 μl/test; BioLegend; catalog no. 305010), Cyclin A2-PE (4μl/test; Beckman Coulter; catalog no. B15092), CD33-APC/Cy7 (5 μl/test; BioLegend; catalog no. 366614), and F(ab′)2-goat anti-rabbit IgG (H+L) Alexa Fluor 647 (0.0938 μg/test; Life Technologies; catalog no. A21246) were added in a final volume of 100 μl and incubated for 1 hour. After the incubation and without washing, 3.5 ml PBS containing 0.5 μg/ml DAPI was added to each sample. All samples were analyzed on an Attune NxT Acoustic Focusing Cytometer (Life Technologies) at a flow rate of 500 μl per minute. Compensation was performed with CompBeads Set Anti-Mouse Ig, κ (BD Biosciences; catalog no. 552843) and Flow Cytometry Protein G Antibody Binding Beads (Bangs Laboratories, Inc.; catalog no. 554/11863).
Data were normalized to the instrument using 8-peak SPHERO Rainbow Calibration Particles (Spherotech; catalog no. RCP-30-5A). WinList 3D v8.0 (Verity Software House) was used for post-acquisition analysis. Doublet discrimination was performed using the DAPI area and peak signals. […]

8 melanoma cell lines = test system: 8 melanoma cell lines; parameters: method as in ref 21 (a number printed in a supplementary file, which may have a reference list of its own: not looked up in the article's list); conditions: two daily treatments 0.2 µM; cited from earlier work
[1] = Decitabine storage and solution stability; assay type: physicochemical; conditions: 18 months at -20 °C
[2] = test system: LINE-1 repetitive element CpG; test: Methylation level of LINE-1 repetitive element CpG by pyrosequencing in PBMC; assay type: in vivo, human
Description: DNA was purified from peripheral blood mononuclear cells (isolated by Ficoll-Hypaque density centrifugation) using the Wizard Genomic DNA Purification Kit (Promega). DNA was bisulfite-converted using EZ DNA Lightning Methylation kit (Zymo Research). The PCR primers were 10 pmol of 5′- […]-3′ and 10 pmol of biotinylated-5′-[…]-3′. PCR cycling conditions were: cycle temperature of 94°C for 30 seconds, 60°C for 30 seconds, and 72°C for 30 seconds, for 45 cycles to consume all the biotinylated primers. The biotinylated strand was captured on streptavidin sepharose beads (Amersham Biosciences, Uppsala, Sweden) and annealed with the sequencing primer 5′-[…]-3′. The methylation degree of long interspersed nuclear elements (LINE-1) was computed at 3 CpG sites pyrosequenced with the Pyromark Q24 Pyrosequencer (Qiagen) using the dispensation order […].

[3] = ref Investigators Brochure, cited from earlier work
[4] = cited from earlier work
[5] = cited from earlier work; remark: listed apart in the source
[6] = rat, in vivo; cited from earlier work
[7] = human starting dose 0.01 mg/kg
Description: To ensure safety in case of this possibility, decitabine pharmacokinetics are measured after single dose oral administration of decitabine and THU.

[8] = parameters: method as in ref 16 (a number printed in a supplementary file, which may have a reference list of its own: not looked up in the article's list); conditions: decitabine 0.1-0.2mg/kg 1-2X/week, four SCD patients; cited from earlier work
[9] = parameters: method as in Investigators Brochure; conditions: THU co-administration, mice; ref Investigators Brochure; cited from earlier work
[10] = test system: malignant tumor formation; parameters: method as in Berger MR. Proc Am Ass Cancer Res 1997;38:599; conditions: 6mg/kg of decitabine; controls 30-40%; ref Berger MR. Proc Am Ass Cancer Res 1997;38:599; cited from earlier work
[11] = cited from earlier work; remark: listed apart in the source
[12] = test system: 10T1/2 cells and V79 cells; parameters: method as in ref 74 (a number printed in a supplementary file, which may have a reference list of its own: not looked up in the article's list); conditions: cited from earlier work
[13] = test system: L5178Y mouse lymphoma cells; parameters: method as in ref 75 (a number printed in a supplementary file, which may have a reference list of its own: not looked up in the article's list); conditions: cited from earlier work

T1 sequence (P26358 whole entry): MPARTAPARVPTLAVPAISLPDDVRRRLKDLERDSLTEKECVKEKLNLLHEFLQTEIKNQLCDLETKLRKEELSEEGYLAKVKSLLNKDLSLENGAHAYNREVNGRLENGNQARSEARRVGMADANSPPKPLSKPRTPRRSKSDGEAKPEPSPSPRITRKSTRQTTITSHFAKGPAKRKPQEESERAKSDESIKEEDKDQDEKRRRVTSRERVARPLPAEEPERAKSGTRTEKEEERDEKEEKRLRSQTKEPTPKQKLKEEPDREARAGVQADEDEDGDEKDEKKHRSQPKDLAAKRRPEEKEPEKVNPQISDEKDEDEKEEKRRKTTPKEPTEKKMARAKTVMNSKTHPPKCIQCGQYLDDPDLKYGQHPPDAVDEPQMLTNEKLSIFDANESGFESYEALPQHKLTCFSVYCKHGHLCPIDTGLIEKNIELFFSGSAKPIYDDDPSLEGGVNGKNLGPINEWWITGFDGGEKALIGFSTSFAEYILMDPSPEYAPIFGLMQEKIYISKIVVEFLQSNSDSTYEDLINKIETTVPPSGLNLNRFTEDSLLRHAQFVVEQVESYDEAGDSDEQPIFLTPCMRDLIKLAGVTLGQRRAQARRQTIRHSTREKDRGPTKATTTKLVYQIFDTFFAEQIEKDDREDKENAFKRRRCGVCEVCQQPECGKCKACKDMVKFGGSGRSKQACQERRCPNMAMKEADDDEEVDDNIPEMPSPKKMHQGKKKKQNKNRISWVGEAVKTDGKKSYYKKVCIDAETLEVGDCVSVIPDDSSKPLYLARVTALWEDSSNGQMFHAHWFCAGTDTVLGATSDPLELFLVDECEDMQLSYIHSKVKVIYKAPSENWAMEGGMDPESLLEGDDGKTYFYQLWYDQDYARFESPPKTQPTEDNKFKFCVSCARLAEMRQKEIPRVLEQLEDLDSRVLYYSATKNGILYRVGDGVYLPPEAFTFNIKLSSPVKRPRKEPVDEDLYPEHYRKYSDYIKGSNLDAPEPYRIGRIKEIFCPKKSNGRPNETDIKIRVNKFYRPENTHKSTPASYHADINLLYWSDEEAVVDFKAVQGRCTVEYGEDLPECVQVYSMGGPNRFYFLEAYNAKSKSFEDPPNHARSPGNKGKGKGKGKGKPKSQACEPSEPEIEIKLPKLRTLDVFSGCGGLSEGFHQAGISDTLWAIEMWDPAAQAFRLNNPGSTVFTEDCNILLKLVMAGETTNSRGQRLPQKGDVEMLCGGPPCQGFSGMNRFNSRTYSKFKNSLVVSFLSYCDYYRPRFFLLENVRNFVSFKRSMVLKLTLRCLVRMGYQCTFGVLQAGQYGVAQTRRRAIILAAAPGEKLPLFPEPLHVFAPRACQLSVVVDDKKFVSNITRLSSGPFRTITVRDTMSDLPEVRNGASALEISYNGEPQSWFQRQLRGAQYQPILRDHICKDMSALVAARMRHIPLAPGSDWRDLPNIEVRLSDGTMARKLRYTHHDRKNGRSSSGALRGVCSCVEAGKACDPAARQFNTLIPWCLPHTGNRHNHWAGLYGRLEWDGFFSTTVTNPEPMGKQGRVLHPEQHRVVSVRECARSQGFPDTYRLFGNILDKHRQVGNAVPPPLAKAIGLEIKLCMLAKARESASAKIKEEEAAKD

## Nc1ncn([C@H]2C[C@H](O)[C@@H](CO)O2)c(=O)n1 [decitabine, 5-aza-2’-deoxycytidine]
DNMT1; decitabine 0.08 mg/kg (cohort 4) after THU 10 mg/kg 2X/week, all patients
  DNMT1 protein decrease from baseline in PBMC: approximately 50%
DNMT1; decitabine […] (cohort 5) after THU 10 mg/kg 2X/week, 2 of the 3 patients
  DNMT1 protein decrease from baseline in PBMC: > 75%
DNMT1; lower decitabine doses (cohorts 1-3)
  DNMT1 protein decrease from baseline in PBMC: not in patients with lower decitabine doses
8 melanoma cell lines
  DNA damage (H2AX, CHK1, p53 phosphorylation, BAX, GADD45, comet assay): did not cause DNA damage
[1]
  drug substance stability on storage: no change in appearance, assay or impurities
[2]; decitabine […] (cohort 5) after THU 10 mg/kg 2X/week
  LINE-1 repetitive element CpG methylation decrease in PBMC: approximately 10%
[2]; lower decitabine doses (cohorts 1-4)
  LINE-1 CpG methylation decrease in PBMC: not with lower decitabine doses
[3]; THU co-administration, baboons
  increase of AUClast compared to oral decitabine alone: approximately 9 fold
[3]; oral decitabine 5-10 mg/m^2 + oral THU 400 mg/m^2 2-3X/week up to 8 weeks
  hematologic or other evidence of cytotoxicity: did not produce hematologic or other evidence of cytotoxicity
[3]; read-out: decitabine Cmax, oral decitabine 100 mg/m^2 + oral THU 400 mg/m^2, in 1 of 7 animals
  Cmax: ~200 nM
[4]
  greater decitabine exposure in rodents versus human dose for dose: more than 100 fold
[5]; 13 SCD and 5 β-thalassemia intermedia patients, SC decitabine 12-36 weeks
  clinical adverse events attributed to decitabine: no clinical adverse events attributed to decitabine
[5]; SCD study of decitabine
  platelet count increases to: > 8e+11 L⁻¹
[5]; parenteral decitabine 2–3X/week, plateau after 12 weeks, SCD patients without HbF response to hydroxyurea
  HbF increase from baseline: > 10%
[5]; sickle cell study, subcutaneous decitabine
  platelet count increases to: ~ 1000 x 10^9/L
[6]
  embryo toxicity: fetal resorption and fetal defects
[7]
  expected Cmax lower than Cmax […] with reversible toxicity in murine toxicology studies: 3,920 fold
[8]
  Hemoglobin increases within 2-4 weeks: > 1.5 g/dL
  maximum hemoglobin increases: 3.5 to 5 g/dL
[9]
  increase of AUClast compared to oral decitabine alone: approximately 9 fold
[10]
  rate of malignant tumor formation: 74-94%
[11]; hydrolysis and cytidine deaminase
  stability in plasma: very unstable in plasma
[11]; pH 7.4, 4 °C
  hydrolysis in aqueous solution every 7 hours: approximately 2.5%
[12]
  mutagenicity: either did not show mutagenicity or was weakly mutagenic
[13]
  mutations as measured by 6TG resistance: did not produce mutations
[13]; thymidine kinase locus
  mutations as measured by tri-fluorothymidine resistance: did induce mutations
